The source of these data is patent publication US20120309796A1, “BENZOCYCLOHEPTENE ACETIC ACIDS” (priority 2011, published 2012).

Test [1] concerns the target T1, human CRTH2 (Homo sapiens, UniProt Q9Y5Y4).
T1 sequence (Q9Y5Y4 1-395): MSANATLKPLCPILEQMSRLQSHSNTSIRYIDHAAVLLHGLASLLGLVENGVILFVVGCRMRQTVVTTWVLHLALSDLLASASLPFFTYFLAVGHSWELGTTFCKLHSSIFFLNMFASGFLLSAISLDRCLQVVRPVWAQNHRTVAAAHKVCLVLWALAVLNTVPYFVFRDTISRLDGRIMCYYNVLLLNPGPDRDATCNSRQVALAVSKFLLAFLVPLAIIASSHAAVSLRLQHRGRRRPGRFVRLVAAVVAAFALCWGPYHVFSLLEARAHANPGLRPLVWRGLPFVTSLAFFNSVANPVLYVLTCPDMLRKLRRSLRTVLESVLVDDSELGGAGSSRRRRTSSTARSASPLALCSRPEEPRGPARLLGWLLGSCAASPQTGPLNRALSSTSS
The test is described as follows: Calcium Flux Assay Using Fluorometric Imaging Plate Reader (FLIPR). Further details: expressed in transfected cells; host or cells: CHO-K1 previously transfected with G-alpha 16. Format: cell-based. The conditions noted are these: CHO-K1 cells with G-alpha 16 and human CRTH2; inhibition of DK-PGD2 ligand-induced Ca2+ flux. On the procedure: CHO-K1 cells previously transfected with G-alpha 16 were subsequently transfected with the human CRTH2 receptor and the neomycin resistance gene. Following selection in 800 μg/mL G418 (geneticin), individual clones were assayed for their receptor expression based on staining with an anti human CRTH2 IgG, followed by assaying for their response to 13,14-dihydro-15-keto Prostaglandin D2 (DK-PDG2) (ligand) in the Ca^2+ Flux assay. Positive clones were then cloned by limiting dilution cloning. The transfected cells were cultured in Ham's F-12 medium supplemented with 10% fetal bovine serum, 2 mM glutamine, 100 U/mL penicillin/100 μg/mL streptomycin, 200 μg/mL hygromycin B, and 800 μg/mL G418 (geneticin). Cells were harvested with trypsin-EDTA (trypsin-ethylenediaminetetraacetic acid) and counted using ViaCount® reagent (from Guava Technologies, Inc. which contains two DNA-binding dyes that enable the reagent user to distinguish between viable and non-viable cells). The cell suspension volume was adjusted to 2.5×10^5 cells/mL with complete growth media. Aliquots of 50 μL were dispensed into BD Falcon™ 384 well black/clear microplates (from BD Biosciences, a division of Becton, Dickinson and Company) and the microplates were placed in a 37° C. CO2 incubator overnight. The following day, the microplates were used in the assay.
Loading Buffer containing dye (from the FLIPR® Calcium 3 Assay Kit from Molecular Devices, a division of MDS Analytical Technologies and MDS Inc.) was prepared by dissolving the contents of one bottle into 200 mL Hank's Balanced Salt Solution containing 20 mM HEPES (4-(2-hydroxyethyl)-1-piperazineethanesulfonic acid) and 2.5 mM probenecid. Growth media was removed from the cell plates and 25 μL of Hank's Balanced Salt Solution (HBSS) containing 20 mM HEPES, 0.05% BSA and 2.5 mM probenecid was added to each well followed by 25 μL of diluted dye using a Multidrop dispenser. The plates were then incubated for 1 hour at 37° C.
During the incubation, test compound plates were prepared by adding 90 μL of HBSS/20 mM HEPES/0.005% BSA buffer to the 2 μL of serial diluted compounds. To prepare serial diluted compounds, 20 mM stocks of compounds were dissolved in 100% DMSO. The compound dilution plate was set up as follows: well #1 received 5 μL of compound plus 10 μL of DMSO. Wells 2-10 received 10 μL of DMSO. 5 μL was mixed and transferred from well #1 into well #2. 1:3 serial dilutions were continued out 10 steps. 2 μl of diluted compound was transferred into duplicate wells of a 384 well “assay plate” and then 90 μL of buffer was added.
After incubation, both the cell and “assay plate” plates were brought to the fluorometric imaging plate reader (FLIPR®) and 20 μL of the diluted compounds were transferred to the cell plates by the FLIPR®. Plates were then incubated for 1 hour at room temperature. After the 1 hour incubation, plates were returned to the FLIPR® and 20 μL of 4.5× concentrated ligand was added to the cell plates. During the assay, fluorescence readings were taken simultaneously from all 384 wells of the cell plate every 1.5 seconds. Five readings were taken to establish a stable baseline, then 20 μL of sample was rapidly (30 μL/sec) and simultaneously added to each well of the cell plate. The fluorescence was continuously monitored before, during and after sample addition for a total elapsed time of 100 seconds. Responses (increase in peak fluorescence) in each well following agonist addition were determined. The initial fluorescence reading from each well, prior to ligand stimulation, was used as a zero baseline value for the data from that well. The responses were expressed as % inhibition of the buffer control. […]
In general terms: Calcium flux is commonly read through the fluorescence of an indicator in the cells.

For test [2], the target named is T1, human CRTH2. Put plainly: Human CRTH2 Receptor Binding Assay (whole cell, [3H]ramatroban competition). The settings on record: CHO-K1 cells expressing human CRTH2 and G-alpha16; 20 nM [3H]ramatroban; 1 hour, room temperature. Also on record: two mammalian expression vectors that harbored human CRTH2 and G-alpha16 cDNAs; expressed in transfected cells. An excerpt: A whole cell receptor binding assay using [^3H]ramatroban as the competing radioactive ligand was employed to evaluate the compound binding activity to human CRTH2. The radioactive ligand [^3H]ramatroban was synthesized according to Sugimoto et. al. (Eur. J. Pharmacol. 2005, 524, 30-37) to a specific activity of 42 Ci/mmol
A cell line stably expressing human CRTH2 was established by transfecting CHO-K1 cells with two mammalian expression vectors that harbored human CRTH2 and G-alpha16 cDNAs, respectively, using FuGene® 6 transfection reagent (from Roche). Stable clones expressing CRTH2 were selected by staining each clone with BM16 (BD Pharmingen™ from BD Biosciences, a division of Becton, Dickinson and Company), which is a rat monoclonal antibody to human CRTH2. The cells were maintained as monolayer cultures in Ham's F-12 medium containing 10% fetal bovine serum, 100 units/mL penicillin, 100 μg/mL streptomycin, 2 mM glutamine, 0.5 mg/mL G418 (geneticin) for CRTH2, and 0.2 mg/mL hygromycin-B (for G-alpha 16). For whole cell receptor binding assay, the monolayer cells were rinsed once with PBS (phosphate buffered saline), dissociated using ethylenediaminetetraacetate (Versene™ EDTA from Lonza Inc.), and suspended in PBS containing 10 mM MgCl2 and 0.06% BSA (bovine serum albumin) at 1.5×10^6 cells/mL.
The binding reactions (0.2 mL) were performed in 96-well plates at room temperature in PBS containing 1.5×10^5 cells, 10 mM MgCl2, 0.06% BSA, 20 nM [^3H]ramatroban, and test compound at various concentrations. After 1 hour of binding reactions, the cells were harvested on GF™/B filter microplates (microtiter plates with embedded glass fiber from PerkinElmer, Inc.) and washed 5 times with PBS using a Filtermate™ Harvester (a cell harvester that harvests and washes cells from microplates from PerkinElmer, Inc.). The radioactivities bound to the cells were determined using a microplate scintillation counter (TopCount® NXT, from PerkinElmer, Inc.) after adding 50 μL of Microscint™ 20 scintillation fluid (from PerkinElmer, Inc.) to each well of the filter plates. The radioactivity from non-specific binding was determined by replacing compound with 10 μM of 15(R)-15-methyl PGD2 (from Cayman Chemical Company) in the reaction mixtures. The radioactivity bound to the cells in the absence of compound (total binding) was determined by replacing compound with 0.25% of DMSO (dimethyl sulfoxide) in the reaction mixture. Specific binding data were obtained by subtracting the radioactivity of non-specific binding from each binding data.
The IC50 value is defined as the concentration of the tested compound that is required for 50% inhibition of total specific binding. In order to calculate the IC50 value, the percent inhibition data were determined for 7 concentrations for each compound. The percent inhibition for a compound at each concentration was calculated according to the following formula, [1-(specific binding in the presence of compound)/(total specific binding)]×100. The IC50 value was then obtained by fitting the percent inhibition data to a sigmoidal dose-response (4 parameter logistic) model in the XLfit® software Excel add-in program [from ID Business Solutions Ltd., model 205, where F(x)=(A+(B−A)/(1+((C/x)̂D)))].

Each structure is given as a SMILES string.

The IC50 is the point on the concentration scale where inhibition reaches its midpoint. With `Cc1cc(-c2ccc(S(=O)(=O)NC3CCCCc4c(OCC(=O)O)cccc43)nc2)cc(C(C)(C)C)c1` (stereo not shown) [Example 35, {5-[5-(3-tert-Butyl-5-methyl-phenyl)-pyridine-2-sulfonylamino]-6,7,8,9-tetrahydro-5H-benzocyclohepten-1-yloxy}-acetic acid], the IC50 in test [1] was found to be 140 nM; in test [2] it was 17.9 nM.
The corresponding values for `CC(C)c1cccc(-c2cccc(S(=O)(=O)NC3CCCCc4c(OCC(=O)O)cccc43)c2)c1` (stereo not shown) [Example 41, [5-(3′-Isopropyl-biphenyl-3-sulfonylamino)-6,7,8,9-tetrahydro-5H-benzocyclohepten-1-yloxy]-acetic acid] are over 5000 nM and 226 nM.
On the same counts, the results for `CC(C)c1cccc(-c2ccc(S(=O)(=O)NC3CCCCc4c(OCC(=O)O)cccc43)nc2)c1` (stereo not shown) [Example 31, {5-[5-(3-Isopropyl-phenyl)-pyridine-2-sulfonylamino]-6,7,8,9-tetrahydro-5H-benzocyclohepten-1-yloxy}-acetic acid] are 476 nM and 26.7 nM.
On the same counts, the results for `O=C(O)COc1cccc2c1CCCCC2NS(=O)(=O)c1ccc(-c2cccc(CCO)c2)cn1` (stereo not shown) [Example 37, (5-{5-[3-(2-Hydroxy-ethyl)-phenyl]-pyridine-2-sulfonylamino}-6,7,8,9-tetrahydro-5H-benzocyclohepten-1-yloxy)-acetic acid] are 214 nM and 17 nM.
As to `Cc1cncc(-c2ccc(S(=O)(=O)NC3CCCCc4c(OCC(=O)O)cccc43)cc2)c1` (stereo not shown) [Example 25, {5-[4-(5-Methyl-pyridin-3-yl)-benzenesulfonylamino]-6,7,8,9-tetrahydro-5H-benzocyclohepten-1-yloxy}-acetic acid], the figures for the IC50 in test [1] and in test [2] were 123 nM and 33.7 nM, respectively.
The corresponding values for `CN(C1CCCCc2c(OCC(=O)O)cccc21)S(=O)(=O)c1ccc(-c2cccc(C(F)(F)F)c2)cn1` (stereo not shown) [Example 34, (5-{Methyl-[5-(3-trifluoromethyl-phenyl)-pyridine-2-sulfonyl]-amino}-6,7,8,9-tetrahydro-5H-benzocyclohepten-1-yloxy)-acetic acid] are 4310 nM and 457 nM.
Consider `CC(=O)c1cc(C(F)(F)F)cc(S(=O)(=O)NC2CCCCc3c(OCC(=O)O)cccc32)c1` (stereo not shown) [Example 15, [5-(3-Acetyl-5-trifluoromethyl-benzenesulfonylamino)-6,7,8,9-tetrahydro-5H-benzocyclohepten-1-yloxy]-acetic acid], for which the half-maximal inhibitory concentration (IC50) in test [2] amounted to 3.3 nM.
The same measure, in the same setting: then `CN(C1CCCCc2c(OCC(=O)O)cccc21)S(=O)(=O)c1ccc(-c2ccc(O)cc2)cc1` (stereo not shown) [Example 24, {5-[(4′-Hydroxy-biphenyl-4-sulfonyl)-methyl-amino]-6,7,8,9-tetrahydro-5H-benzocyclohepten-1-yloxy}-acetic acid], with 987 nM; and `CSc1cccc(-c2ccc(S(=O)(=O)N(C)C3CCCCc4c(OCC(=O)O)cccc43)cc2)c1` (stereo not shown) [Example 28, {5-[Methyl-(3′-methylsulfanyl-biphenyl-4-sulfonyl)-amino]-6,7,8,9-tetrahydro-5H-benzocyclohepten-1-yloxy}-acetic acid], with 603 nM.
Same read-out and setting: then `CN(C1CCCCc2c(OCC(=O)O)cccc21)S(=O)(=O)c1cc(S(C)(=O)=O)cc(S(C)(=O)=O)c1` (stereo not shown) [Example 11, {5-[(3,5-Bis-methanesulfonyl-benzenesulfonyl)-methyl-amino]-6,7,8,9-tetrahydro-5H-benzocyclohepten-1-yloxy}-acetic acid], with 33.4 nM.
Same read-out and setting: in the case of `COc1cc(C(F)(F)F)cc(S(=O)(=O)N(C)C2CCCCc3c(OCC(=O)O)cccc32)c1` (stereo not shown) [Example 14, {5-[(3-Methoxy-5-trifluoromethyl-benzenesulfonyl)-methyl-amino]-6,7,8,9-tetrahydro-5H-benzocyclohepten-1-yloxy}-acetic acid] it was 106 nM.
Regarding `CC(C)c1cccc(-c2ccc(S(=O)(=O)N(C)C3CCCCc4c(OCC(=O)O)cccc43)nc2)c1` (stereo not shown) [Example 32, (5-{[5-(3-Isopropyl-phenyl)-pyridine-2-sulfonyl]-methyl-amino}-6,7,8,9-tetrahydro-5H-benzocyclohepten-1-yloxy)-acetic acid], the IC50 in test [2] worked out at 123 nM.
Still for that read-out and setting: then `Cc1ccc(-c2cccc(S(=O)(=O)N(C)C3CCCCc4c(OCC(=O)O)cccc43)c2)cc1` (stereo not shown) [Example 40, {5-[Methyl-(4′-methyl-biphenyl-3-sulfonyl)-amino]-6,7,8,9-tetrahydro-5H-benzocyclohepten-1-yloxy}-acetic acid], with 555 nM.
